From US10800790B2, “Sesquiterpenoid STAT3 inhibitors” (University of Hawaii, priority 2013, dated 2020)

What was measured:
[1] = test system: STAT3 DNA-binding activity; assay: STAT3 DNA-binding activity (EMSA) of nuclear extracts from treated tumor cells; details: 5 micromolar, time course
Method: Positions of STATs:DNA complexes or proteins in gel are labeled; control lanes (0) represent nuclear extracts or whole-cell lysates prepared from 0.05% DMSO-treated cells.
Nuclear extract preparations and DNA-binding/electrophoretic mobility shift assay (EMSA) were carried out as previously described (Xu, supra). Nuclear extract preparations and DNA-binding activity/electrophoretic mobility shift assay (EMSA) were carried out as previously described. U251 MG and MDA-MB-231 cells culture were pretreated with different concentrations of the compounds for the indicated period and then harvested for nuclear extract preparation and DNA-binding assay with EMSA analysis. […] Except where indicated, nuclear extracts were pre-incubated with compound for 30 min at room temperature prior to incubation with the radiolabeled probe for 30 min at 30° C. before subjecting to EMSA analysis.

[2] = target: T1, STAT3 (NIH3T3/v-Src nuclear extracts) (Mus musculus, UniProt P42227); assay: In vitro STAT3 DNA-binding activity/EMSA, nuclear extracts incubated with compound; assay type: biochemical; details: 5 micromolar, 30 min at room temperature
T1 construct: nuclear extracts prepared from v-Src-transformed mouse fibroblasts (NIH3T3/v-Src) containing active STAT3; endogenous in cells; host or cells: NIH3T3/v-Src mouse fibroblasts (nuclear extract)
T1 sequence (P42227 whole entry): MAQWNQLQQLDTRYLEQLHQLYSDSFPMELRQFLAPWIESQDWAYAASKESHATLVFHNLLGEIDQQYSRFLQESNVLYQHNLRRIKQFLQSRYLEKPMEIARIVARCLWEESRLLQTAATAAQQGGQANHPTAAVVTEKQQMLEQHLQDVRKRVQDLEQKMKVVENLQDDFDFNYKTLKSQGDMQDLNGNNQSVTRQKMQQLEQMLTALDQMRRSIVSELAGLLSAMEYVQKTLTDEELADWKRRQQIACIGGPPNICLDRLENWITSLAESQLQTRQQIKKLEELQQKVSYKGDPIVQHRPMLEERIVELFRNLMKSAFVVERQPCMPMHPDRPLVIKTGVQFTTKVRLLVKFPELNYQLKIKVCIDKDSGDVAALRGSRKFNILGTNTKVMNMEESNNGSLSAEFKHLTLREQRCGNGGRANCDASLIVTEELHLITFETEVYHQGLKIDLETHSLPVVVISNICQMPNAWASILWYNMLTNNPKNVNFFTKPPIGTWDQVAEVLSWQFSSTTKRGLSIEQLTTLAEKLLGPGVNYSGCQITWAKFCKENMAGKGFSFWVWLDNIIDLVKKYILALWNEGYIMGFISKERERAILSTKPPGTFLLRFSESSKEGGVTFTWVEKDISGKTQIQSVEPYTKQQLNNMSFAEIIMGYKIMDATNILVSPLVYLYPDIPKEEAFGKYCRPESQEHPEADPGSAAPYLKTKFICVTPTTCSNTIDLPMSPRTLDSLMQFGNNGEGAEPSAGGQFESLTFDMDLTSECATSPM
Method: To further determine the effects of the bioactive agents on STAT3 activity, nuclear extracts prepared from v-Src-transformed mouse fibroblasts (NIH3T3/v-Src) containing active STAT3 were directly incubated with 5 micromolar compounds for 30 min at room temperature prior to performing STAT3 DNA-binding activity in vitro with EMSA analysis. […] These studies indicate that agents directly interact with STAT3 and disrupt STAT3:STAT3 dimers, thereby inhibiting its DNA-binding activity.
Data are representative of 2-3 independent determinations.
Nuclear extract preparations and DNA-binding/electrophoretic mobility shift assay (EMSA) were carried out as previously described (Xu, supra). Nuclear extract preparations and DNA-binding activity/electrophoretic mobility shift assay (EMSA) were carried out as previously described. U251 MG and MDA-MB-231 cells culture were pretreated with different concentrations of the compounds for the indicated period and then harvested for nuclear extract preparation and DNA-binding assay with EMSA analysis. The ^32P-labeled oligonucleotide probe used was hSIE (high-affinity sis-inducible element) from the c-fos gene, m67 variant (5′-[…]-3′) that binds STAT3. Except where indicated, nuclear extracts were pre-incubated with compound for 30 min at room temperature prior to incubation with the radiolabeled probe for 30 min at 30° C. before subjecting to EMSA analysis. Where appropriate, bands corresponding to DNA-binding activities were scanned and quantified for each concentration of compound using ImageJ and plotted as percent of control (vehicle) against concentration of compound, from which the IC50 values were derived.

PTP1B = assay: Immunoblotting of PTP1B levels in U251MG cells; assay type: cell-based, human; details: 5 micromolar
Method: To further investigate into the mechanism of inhibition of STAT3 induction, effects on protein tyrosine […] (PTPs) were determined. […] Instead, the potent inhibitory effects of agents (5 micromolar) countered the robust pY705STAT3 induction by orthovanadate alone.
FIGS. 13A-13C show analyses of STAT1, STAT3, STAT5, Akt, Erk1/2, JAK2, SOCS, and PTP1B activation or STAT3-EGFR association and the effects of active hirsutinolides and sodium orthovanadate. (A-C) SDS-PAGE and Western blotting analysis of whole-cell lysates of equal total protein prepared from (A) EGF-stimulated NIH3T3/hEGFR cells pre-treated with the 5 micromolar of the designated agents for 24 h and probing for pY705STAT3, STAT3, pY701 STAT1, STAT1, pY694STAT5, STAT5 or GAPDH, or the human glioma, U251MG cells treated with 5 micromolar of the designated inhibitors for (B) 0-32 h and probing for pS-Akt, Akt, pErk1/2, Erk1/2, pJAK2, JAK2, SOCS3, PTP1B, pSTAT3, STAT3, β-actin or GAPDH; or (C) 3 h in the absence or presence of increasing concentration of Na3VO4 and probing for pSTAT3, STAT3 or GAPDH/.

U251MG cells = assay: Wound healing assay for migration; assay type: cell-based, human; details: 0-5 micromolar, 19 h, viability unaffected
Method: Viable cell numbers at 19 h post-treatment were counted and are represented (right panel). Values are the mean and S.D. of 3-4 independent determinations. Data are representative of 3 independent determinations.
This assay was performed as previously reported. (Xu, Y., supra). Briefly, subconfluent cultures of U251MG cells in 6-well plates were wounded using pipette tips and treated with compound or vehicle (DMSO) and allowed to migrate into the denuded area over a 19 h period. The migration of cells was visualized at a 10× magnification using an Axiovert 200 inverted fluorescence microscope (Zeiss), with pictures taken using a mounted Canon Powershot A640 digital camera.

pSTAT1 = assay: Immunoblotting of EGF-induced pSTAT1 in NIH3T3/hEGFR; details: 5 micromolar
Method: To determine the specificity of agents, mouse fibroblasts over-expressing the human EGF receptor (NIH3T3/hEGFR) were treated with the compounds and stimulated with EGF.

Substance: (4S,6R,E)-4,7-dihydroxy-6,10-dimethyl-2-oxo-2,4,5,6,7,8,9,10-octahydro-7,10-epoxycyclodeca[b]furan-3-yl)methyl(E)-2-methylbut-2-enoate [Compound 22]
- Inhibition of STAT3 DNA-binding activity in treated cells (EMSA) [1]: early inhibition at 15-30 min
- Inhibition of STAT3 DNA-binding activity in vitro (EMSA) [2]: strong inhibition
- Effect on PTP1B levels (PTP1B): little or no effects
- Cell migration into the denuded area (U251MG cells): suppressed the numbers of U251 cells migrating into the denuded area
- Effect on EGF-induced pSTAT1 (pSTAT1): no effects
